Experiments:
[1] = target: T1, W1282X-CFTR (Homo sapiens, UniProt P13569); test: Structure-activity testing of analogs in FRT cells expressing W1282X-CFTR; assay type: cell-based; settings: for Relative Vmax (%): Table 1, 100% Vmax corresponds to 20 μM ASP-11; for EC50: Table 1, piperidine-pyridoindole analogs
T1 construct: expressed in transfected cells
Protocol: To establish structure-activity relationships, 240 commercially available piperidinepyridoindole analogs and 160 pyrazoloquinoline analogs were tested in FRT cells expressing W1282X-CFTR. In general, the methoxy substituent on the 4-position (R^3) on the pyridoindole ring increased potency (compare A01 vs A534). N-methylation on the pyridoindole ring abolished activity (compare A534 vs A600). For substituent R^1 on the piperidine ring, substituted benzyl gave greatest activity (A061 and A662). Other R^1 substituents, including sulfonamide (A145), alkyl (A764) and carbocyclic (A714), reduced activity. Changing the benzylic carbon from methylene (CH2) to ketone (C=O) abolished activity (A815, A350 and A956).
For R^3, pyridine (D003), benzyl (D035) and substituted methyl-pyrazole (D086) abolished activity. […] The D123 pyrazoloquinoline with R^3 substituted with thiophene-quinoline heterocycle gave the best potency.

[2] = target: T2, Q1313X-CFTR (Homo sapiens, UniProt P13569); test: Short-circuit current in FRT cells expressing Q1313X-CFTR; assay type: cell-based; settings: Q1313X-CFTR FRT cells, 20 μM forskolin
T2 construct: expressed in transfected cells
T2 sequence (P13569 1-1312 limits assumed): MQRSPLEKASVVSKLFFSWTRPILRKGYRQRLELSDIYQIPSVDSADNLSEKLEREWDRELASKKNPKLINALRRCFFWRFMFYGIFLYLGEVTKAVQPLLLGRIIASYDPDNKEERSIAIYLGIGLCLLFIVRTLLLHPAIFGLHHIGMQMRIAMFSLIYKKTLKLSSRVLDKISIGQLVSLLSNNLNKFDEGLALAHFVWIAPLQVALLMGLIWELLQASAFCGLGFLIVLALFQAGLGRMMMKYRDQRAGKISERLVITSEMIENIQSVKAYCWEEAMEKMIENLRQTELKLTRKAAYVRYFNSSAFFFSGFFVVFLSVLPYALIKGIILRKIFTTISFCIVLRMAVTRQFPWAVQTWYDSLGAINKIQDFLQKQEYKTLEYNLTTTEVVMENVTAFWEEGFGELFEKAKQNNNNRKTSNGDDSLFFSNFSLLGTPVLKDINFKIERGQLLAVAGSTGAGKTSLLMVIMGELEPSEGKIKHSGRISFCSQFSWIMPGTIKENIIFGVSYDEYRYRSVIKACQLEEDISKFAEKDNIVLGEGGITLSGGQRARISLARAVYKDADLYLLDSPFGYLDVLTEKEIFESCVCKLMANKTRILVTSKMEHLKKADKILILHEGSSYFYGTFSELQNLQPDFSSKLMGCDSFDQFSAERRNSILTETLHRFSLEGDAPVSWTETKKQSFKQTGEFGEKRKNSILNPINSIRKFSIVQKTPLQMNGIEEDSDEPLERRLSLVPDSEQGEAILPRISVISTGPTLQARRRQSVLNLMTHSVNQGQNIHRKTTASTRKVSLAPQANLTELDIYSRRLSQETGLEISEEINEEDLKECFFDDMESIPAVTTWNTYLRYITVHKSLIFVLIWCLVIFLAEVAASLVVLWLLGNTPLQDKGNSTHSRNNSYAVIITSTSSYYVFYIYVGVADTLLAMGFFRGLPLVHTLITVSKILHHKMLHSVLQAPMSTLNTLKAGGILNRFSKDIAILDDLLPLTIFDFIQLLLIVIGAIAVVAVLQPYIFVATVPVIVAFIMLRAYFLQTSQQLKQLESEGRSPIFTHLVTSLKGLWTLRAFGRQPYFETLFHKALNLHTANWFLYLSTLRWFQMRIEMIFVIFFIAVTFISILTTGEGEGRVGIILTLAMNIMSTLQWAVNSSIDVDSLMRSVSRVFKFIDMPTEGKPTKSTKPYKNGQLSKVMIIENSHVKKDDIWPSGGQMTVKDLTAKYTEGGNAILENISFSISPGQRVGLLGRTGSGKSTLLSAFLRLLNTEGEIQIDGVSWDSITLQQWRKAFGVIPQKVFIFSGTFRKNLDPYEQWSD
Protocol: As shown in Fig. 1C and summarized in Fig. 2, ASP-11 acted in synergy with VX-770 to increase chloride current in FRT cells expressing the NBD2 mutations I1234del- and Q1313X-CFTR by ~3–9-fold compared to VX-770. I1234del- and Q1313X-CFTR-expressing cells were also treated with VX-809 for 24 hours (to consider the effect of available CFTR therapeutics) with 2–3-fold greater currents observed.
Studies on FRT cells expressing Q1313X-CFTR produced similar data (Fig. 3C).
Figures 5C,D show data in N1303K- and Q1313X-expressing FRT cells.
Short-circuit current was measured on cells cultured on Snapwell clear permeable supports (Corning) as described[10],[11]. Hemichambers were connected to a DVC-1000 voltage clamp (World Precision Instruments Inc., Sarasota, FL) via Ag/AgCl electrodes and 3 M KCl agar bridges for recording of the short-circuit current. For human airway epithelial cells, symmetrical HCO3^−-buffered solutions (in mM: 120 NaCl, 5 KCl, 1 MgCl2, 1 CaCl2, 5 Hepes, 25 NaHCO3, 10 glucose, pH 7.4) for basolateral and apical side were used. For FRT cells, the basolateral membrane was permeabilized with 250 μg/ml amphotericin B, and experiments were done with a chloride gradient using a HCO3^−-buffered solutions (Basolateral (mM): 120 NaCl, 5 KCl, 1 MgCl2, 1 CaCl2, 5 Hepes, 25 NaHCO3, 10 glucose, pH 7.4; apical (mM): 60 NaCl, 60 mM sodium gluconate, 5 KCl, 1 MgCl2, 1 CaCl2, 5 Hepes, 25 NaHCO3, 10 glucose, pH 7.4). All cells were equilibrated with 95% O2, 5% CO2 and maintained at 37 °C during experiments.

T1 sequence (P13569 1-1281 limits assumed): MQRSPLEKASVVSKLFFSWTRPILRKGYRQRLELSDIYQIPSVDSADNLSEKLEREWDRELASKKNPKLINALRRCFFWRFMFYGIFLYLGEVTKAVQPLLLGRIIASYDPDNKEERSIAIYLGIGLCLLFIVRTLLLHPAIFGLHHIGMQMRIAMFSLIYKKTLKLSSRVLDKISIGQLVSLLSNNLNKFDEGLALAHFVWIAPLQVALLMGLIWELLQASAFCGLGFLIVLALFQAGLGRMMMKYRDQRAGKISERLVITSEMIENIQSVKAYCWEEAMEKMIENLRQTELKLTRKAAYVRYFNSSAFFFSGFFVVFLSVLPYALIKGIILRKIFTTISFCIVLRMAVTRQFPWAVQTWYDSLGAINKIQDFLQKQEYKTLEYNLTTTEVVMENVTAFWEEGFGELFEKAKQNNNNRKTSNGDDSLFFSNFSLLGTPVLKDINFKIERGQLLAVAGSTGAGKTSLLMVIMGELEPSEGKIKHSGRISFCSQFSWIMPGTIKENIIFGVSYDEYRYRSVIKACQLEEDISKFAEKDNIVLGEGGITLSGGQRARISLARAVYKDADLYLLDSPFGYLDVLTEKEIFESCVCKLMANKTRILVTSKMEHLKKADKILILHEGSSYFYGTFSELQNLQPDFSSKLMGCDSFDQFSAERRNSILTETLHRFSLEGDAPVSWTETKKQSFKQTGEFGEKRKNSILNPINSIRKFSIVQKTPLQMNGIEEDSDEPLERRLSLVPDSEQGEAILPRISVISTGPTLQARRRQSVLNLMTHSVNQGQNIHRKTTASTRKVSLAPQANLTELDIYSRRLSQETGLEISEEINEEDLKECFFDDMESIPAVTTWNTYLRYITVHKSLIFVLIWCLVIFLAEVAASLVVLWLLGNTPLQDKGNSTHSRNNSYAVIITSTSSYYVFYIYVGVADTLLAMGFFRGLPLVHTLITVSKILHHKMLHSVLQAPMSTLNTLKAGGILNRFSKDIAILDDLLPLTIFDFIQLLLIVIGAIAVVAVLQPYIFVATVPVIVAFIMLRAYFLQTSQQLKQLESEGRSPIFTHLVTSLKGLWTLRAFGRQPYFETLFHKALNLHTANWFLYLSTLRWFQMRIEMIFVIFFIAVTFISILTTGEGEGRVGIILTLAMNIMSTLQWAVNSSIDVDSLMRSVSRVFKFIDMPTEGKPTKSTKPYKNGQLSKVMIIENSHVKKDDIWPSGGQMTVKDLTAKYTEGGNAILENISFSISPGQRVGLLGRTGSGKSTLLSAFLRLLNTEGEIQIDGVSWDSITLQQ

Row | Compound | Relative Vmax (%) [1] | EC50 [1] | short-circuit current response when added after VX-770 ([2]; 5 μM VX-770, 20 μM P2, P3, P5, ASP-11, 25 μM apigenin) | short-circuit current response when added after GLPG1837 ([2]; 20 μM GLPG1837)
1 | COc1ccc2[nH]c3c(c2c1)CCNC31CCN(S(C)(=O)=O)CC1 [Compound A145] | 7% | > 30 µM |  | 
2 | c1ccc(CN2CCC3(CC2)NCCc2c3[nH]c3ccccc23)cc1 [Compound A357] | 31% | 16 µM |  | 
3 | COc1cccc(CN2CCC3(CC2)NCCc2c3[nH]c3ccccc23)c1 [Compound A534] | 24% | 13 µM |  | 
4 | COc1cccc(CN2CCC3(CC2)c2[nH]c4ccccc4c2CCN3C)c1 [Compound A600] | 4% | > 30 µM |  | 
5 | COc1ccc2[nH]c3c(c2c1)CCNC31CCN(Cc2ccc(F)c(F)c2)CC1 [Compound A662] | 100% | 2.6 µM |  | 
6 | COc1ccc2[nH]c3c(c2c1)CCNC31CCN(C2CCCCC2)CC1 [Compound A714] | 18% | > 30 µM |  | 
7 | COc1ccc2[nH]c3c(c2c1)CCNC31CCN(C)CC1 [Compound A764] | 6% | > 30 µM |  | 
8 | O=c1cc(-c2ccc(O)cc2)oc2cc(O)cc(O)c12 [apigenin] |  |  | showed synergy | showed synergy

— PMC6881293, “Nanomolar-potency ‘co-potentiator’ therapy for cystic fibrosis caused by a defined subset of minimal function CFTR mutants” (Scientific Reports, 2019)
